≈ marks a conversion by molar mass, not a printed value. Counter-ions that a name gives are not always drawn. Like-named read-outs stand apart in the source and are kept apart here.
How the values were obtained:
HSV-2 [1] = assay: HSV-2 plaque assay in Vero E6 cells with EF eluants; format: cell-based
Description: Initially, experiments were undertaken to determine the in vitro efficacy of unmodified EFs that encapsulated antivirals (ACV and TDF) or are surface-modified with GRFT, against HSV-2 infection. […] The top row of each plate contained cells that were incubated with blank PLGA or PLCL EFs. […] After infection, cells were incubated with IgG to neutralize free HSV-2, and EF eluants were administered to Vero E6 cells. Appropriate controls of: [no treatment/no virus], [no treatment/virus], [blank PLGA or PLCL EFs, virus], and [free ACV, virus] were conducted. […] Similarly, fibers were assessed after 28 days to ensure bioactivity after one month in SVF. […] Only one of the three IC50 curves is shown for each in FIG. 13 for purposes of brevity.

HIV-1 = assay: Env-pseudotyped virus infectivity assay of TDF EFs in TZM-bl cells; format: cell-based; details: EFs given 1 and 24 hr before infection
Description: A reporter gene expression Env-pseudotyped virus infectivity assay was used, as described previously, to measure the HIV-1 antiviral activity of the TDF PLGA and PLCL EFs. Antiviral activity was measured as a reduction in firefly Luciferase (Luc) reporter gene expression after administration of different EF concentrations 1 and 24 hr before a single round of infection in TZM-bl cells (i.e., the engineered HeLa cell clone that stably expresses CD4, CCR5, and CXCR4 receptors and contains HIV-1 Tat-regulated reporter genes for firefly luciferase and B-galactosidase). One set of 8 control wells received only cells plus virus (virus control), and another set of 8 wells received cells only (background control). After 48 hr incubation, culture medium was removed from each well, an equal volume of Bright-Glo™ reagent was added, and luminescence was measured. The EC50 was determined as the TDF-EF concentration that caused a 50% reduction in RLU relative to virus control wells after subtraction of background RLU (FIG. 14).

[2] = tested on: HIV-1-enveloped pseudovirus; details: subcutaneous administration in mice; cited from earlier work
HSV-2 [3] = details: in vivo; cited from earlier work
HIV-1 isolates = details: most HIV-1 isolates; cited from earlier work
HSV-2 [4] = details: in vitro; read-out: cell-dependent EC50; cited from earlier work
[5] = tested on: HIV-1 pseudovirus (CCR5-using clade A strain Q769.h5); assay: Env-pseudotyped virus infectivity assay in TZM-bl cells (luciferase); format: cell-based; details: similar administration durations
From the text: Materials. Carboxyl-terminated 50:50 poly(lactic-co-glycolic acid) (PLGA, 0.55-0.75 dL/g, 31-57 k MW) was purchased from Lactel Absorbable Polymers (Cupertino, Calif.). Dichloromethane (DCM), dimethyl sulfoxide (DMSO), and the MTT assay kit were obtained from Sigma Aldrich (St Louis, Mo.). 1,1,1,3,3,3-hexafluoro-2-propanol (HFIP) was obtained from Fisher Scientific (Pittsburgh, Pa.). GRFT (MW 12.7 kDa) was produced in Nicotiana benthamiana as previously reported. Fetal bovine serum (FBS) and antibiotics (penicillin/streptomycin) were purchased from VWR. Dulbecco's modified Eagle's medium (DMEM) and keratinocyte serum-free medium were purchased from Invitrogen. The EDC-NHS and enzyme-linked immunosorbent assay (ELISA) kits were purchased from ThermoFisher. Simulated vaginal fluid (SVF) was prepared as described previously. […]
Cell lines. […] Vaginal keratinocyte, VK2/E6E7 (VK2); ectocervical, Ect1/E6E7 (Ect1); and endocervical, End1/E6E7 (End1) cell lines, obtained from ATCC, were evaluated in cytotoxicity experiments. […]
In vitro antiviral activity of GRFT-EFs. […] The anti-HIV activity of the GRFT-EFs was measured as a reduction in firefly luciferase (Luc) reporter gene expression in the presence of GRFT-EFs compared to unmodified EFs after a single round of infection in TZM-bl cells. […]

HIV-1BaL = assay: HIV-1 infection of polarized ectocervical tissue explants; format: cell-based, human
[6] = tested on: HIV-1 pseudovirus (CCR5-using clade A strain Q769.h5); details: same virus strain (Q769.h5); cited from earlier work

## Nc1nc2c(ncn2COCCO)c(=O)[nH]1 [free ACV, acyclovir]
HSV-2 [1]; Human alphaherpesvirus 2, Vero C1008, 72 h, fiber eluant collected after 3 days, read-out: average IC50
  IC50: 0.287 µg/mL (≈ 1.27 µM)
HSV-2 [1]; Human alphaherpesvirus 2, Vero C1008, 672 h, after 28 days in SVF, read-out: IC50
  IC50: 0.293 µg/mL (≈ 1.3 µM)
HSV-2 [1]; Human alphaherpesvirus 2, Vero C1008, eluant released between 21 and 28 days, read-out: IC50
  IC50: 0.293 µg/mL (≈ 1.3 µM)

## CC(C)OC(=O)OCOP(=O)(CO[C@H](C)Cn1cnc2c(N)ncnc21)OCOC(=O)OC(C)C [free TDF, tenofovir disoproxil fumarate]
HIV-1
  protection against HIV-1: complete protection against HIV-1

## griffithsin [free GRFT]
[2]
  antiviral activity of serum from treated animals: retained antiviral activity
HSV-2 [3]
  HSV-2 cell entry: modestly inhibited
  HSV-2 cell-to-cell spread: completely inhibiting
HIV-1 isolates
  in vitro inhibitory activity (EC50): mid-pM to low-nM range
HSV-2 [4]
  EC50: 2.3 to 143 µM
[5]
  IC50 of free GRFT: 233±2.7 ng GRFT/mL
HIV-1BaL
  block of HIV-1 infection in ectocervical explants: blocks HIV-1 infection
HIV-1BaL; ectocervical tissue, 10^4 TCID50 HIV-1BaL overnight, 21 days culture
  concentration down to which HIV-1 infection was blocked: 10 µM
[6]
  previous literature measurement for free GRFT: 157 ng/mL

From US20210106650A1, “MICROBICIDAL COMPOSITIONS AND METHODS FOR TREATMENT OF VIRAL INFECTIONS” (University of Louisville Research Foundation, Inc., priority 2015, published 2021)
